Experimental data reported in patent publication US20040204417A1, “Novel benzothienyl or indole derivatives, preparation and use thereof as inhibitors of prenyl transferase proteins” (priority 2001, published 2004).

Columns and labels:
GGPT I = target: T1, GGPT I (Bos taurus, UniProt P29702+Q5EAD5); test: Evaluation of the inhibition of geranyl geranyl transferase protein I (3H-GGPP incorporation into RhoA-GST); assay type: biochemical, bovine; details: read-out: IC50 PGGTase
T1 construct: GGPT I is partially purified from bovine brain by ion-exchange chromatography; from tissue; host or cells: bovine brain
Procedure: B) Evaluation of the inhibition of geranyl geraryl transferase protein I:
55 mM TRIS/HCl pH 7.5; 5.5 mM DTT; 5.5 mM MgCl2; 110 μM ZnCl2, 0.22% N-octyl-B D-glucopyrannoside.
^3H-geranylgeranyl pyrophosphate (GGPP), 66 μM, 15 CI/mmol, (Isotopchim)
Rho-GST recombinant protein
GGPT I is partially purified from bovine brain by ion-exchange chromatography on Q-sepharose (Pharmacia); elution at 0.23 and 0.4 M NaCl, respectively.
The reaction mixture containing 0.2 μM of ^3H-GGPP, 1 μM of RhoA-GST with or without (zero) 5 μl of GGPT/test, is prepared on ice.
In an Eppendorf tube, 45 μl of reaction mixture are mixed with 5 μl of 10× concentrated test product or of solvent, and incubated for 45 minutes at 37° C. A 45 μl aliquot is placed on a phosphocellulose P81 filter (Whatman, Maidstone, UK) numbered, washed with 50% ethanol, phosphoric acid (0.5%) and counted by scintillation.
The tests are performed in duplicate. The results are expressed as a percentage of inhibition.
Adaptation of the method to a 96-wellformat
The procedure is similar to that above, except that the measurements are performed in 96-well plates (Nunc, France) and the reactions are then passed through a 96-well “Unifilter” (Whatman, Maidstone, UK) containing a phosphocellulose P81 buffer using a “Filtermate 196” system (Packard, France).
After washing with 50% ethanol and phosphoric acid (0.5%), the filters are counted by scintillation on a “Packard Topcount” instrument.
The tests are performed in triplicate. The results are expressed as a percentage of inhibition.

[1] = target: T2, protein farnesyl transferase (Bos taurus, UniProt P29702+P49355); test: Evaluation of the inhibition of protein farnesyl transferase (dansyl-GCVLS fluorescence); assay type: biochemical, bovine; details: read-out: IC50 PFTase
T2 construct: partially purified from bovine brain by ion-exchange chromatography; from tissue; host or cells: bovine brain
Procedure: A) Evaluation of the inhibition of protein farnesyl transferase
The farnesylation of the dansylated peptide GCVLS, catalyzed with the enzyme protein farnesyl transferase, results in a change in the emission spectrum of the dansyl group, and especially an increase in the emission at 505 nm when the molecule is excited at 340 nm. When measured using the spectrofluorimeter, this emission is proportional to the activity of the enzyme (Pompliano et al., J. Am. Chem. Soc. 1992; 114: 7945-7946).
55 mM TRIS/HCl pH 7.5; 5.5 mM DTT; 5.5 mM MgCl2; 110 μM ZnCl2, 0.22% B-octyl-B D-glucopyrannoside.
Farnesyl pyrophosphate (FPP), (Sigma)
Dansylated peptide dansyl-GCVLS (Neosystem/Strasbourg, France)
The protein farnesyl transferase is partially purified from bovine brain by ion-exchange chromatography on Q-sepharose (Pharmacia) (Moores et al., J. Biol. Chem. 1991, 266: 14603-14610, Reiss et al., Cell 1990, 62: 81-88).
The reaction mixture containing 2 μM of FPP, 2 μM of dansyl GCVLS with or without (zero) the amount of enzyme giving an intensity of 100 on the spectrofluorimeter after incubation for 10 minutes at 37° C., is prepared on ice.
In an Eppendorf tube, 360 μl of reaction mixture are mixed with 40 μl of 10× concentrated test product or of solvent, and incubated for 10 minutes at 37° C. The reaction is quenched on ice and the fluorescence intensity is measured (excitation at 340 nm, 4 nm slit, emission at 505 nm, 10 nm slit). The tests are performed in duplicate. The results are expressed as a percentage of inhibition. Under these conditions, the derivatives of the present invention were identified as powerful inhibitors of protein farnesyl transferase (IC50<10 μM).
Adaptation of the method to a 96-wellformat:
The procedure is similar to that above, except that the measurements are performed in a “Black Fluorotrack 200” 96-well device (Greiner, Poitiers, France) and the readings are performed using a “Spectrametrix Gemini” 96-well fluorimeter (Molecular Devices, Sunnyvale, Calif., USA)

| SMILES | IC50 (GGPT I) [nM] | IC50 [1] [nM] |
| --- | --- | --- |
| CC(C)C[C@H](NC(=O)c1cc2c(NCc3cncn3Cc3ccc(C#N)cc3)cccc2s1)C(=O)O [Example 28, (2S)-2-[(4-{[3-(4-cyanobenzyl)-3H-imidazol-4-ylmethyl]amino}benzo[b]thiophene-2-carbonyl)amino]-4-methylpentanoic acid] | 10 | 4 |
| CSCC[C@H](NC(=O)c1cc2c(N(Cc3cncn3Cc3ccc(C#N)cc3)S(=O)(=O)c3ccccc3)cccc2s1)C(=O)O [Example 30, (2S)-2-[(4-{benzenesulfonyl-[3-(4-cyanobenzyl)-3H-imidazol-4-ylmethyl]amino}benzo[b]thiophene-2-carbonyl)amino]-4-(methylsulfanyl)butyric acid] | – | 6 |
| CC(C)C[C@H](NC(=O)c1cc2cc(N(Cc3cncn3Cc3ccc(C#N)cc3)S(=O)(=O)c3ccccc3)ccc2s1)C(=O)O [Example 33, (2S)-2-[(5-{benzenesulfonyl-[3-(4-cyanobenzyl)-3H-imidazol-4-ylmethyl]amino}benzo[b]thiophene-2-carbonyl)amino]-4-methylpentanoic acid] | 70 | 6 |
| CCOC(=O)c1cc2cc(NCc3cncn3Cc3ccc(C#N)cc3)ccc2s1 [Example 34, Ethyl 5-{[3-(4-cyanobenzyl)-3H-imidazol-4-ylmethyl]amino}benzo[b]thiophene-2-carboxylate] | – | 10 |
| COC(=O)[C@H](CCSC)NC(=O)c1cc2cc(N(Cc3cncn3Cc3ccc(C#N)cc3)S(=O)(=O)c3ccccc3)ccc2s1 [Example 40] | – | 2 |
| N#Cc1ccc(Cn2cncc2CN(c2ccc3sc(C(=O)NCc4cccs4)cc3c2)S(=O)(=O)c2ccccc2)cc1 [Example 46, N-(Thiophen-2-ylmethyl)-5-{benzenesulfonyl-[3-(4-cyanobenzyl)-3H-imidazol-4-ylmethyl]amino}benzo[b]thiophene-2-carboxamide] | – | 1 |
| N#Cc1ccc(Cn2cncc2CN(c2ccc3sc(C(=O)NC4CCCC4)cc3c2)S(=O)(=O)c2ccccc2)cc1 [Example 55, N-Cyclopentyl-5-{benzenesulfonyl-[3-(4-cyanobenzyl)-3H-imidazol-4-ylmethyl]amino}benzo[b]thiophene-2-carboxamide] | – | 3 |
| CCCCNC(=O)c1cc2cc(N(Cc3cncn3Cc3ccc(C#N)cc3)S(=O)(=O)c3ccccc3)ccc2s1 [Example 57, N-Butyl-5-{benzenesulfonyl-[3-(4-cyanobenzyl)-3H-imidazol-4-ylmethyl]amino}benzo[b]thiophene-2-carboxamide] | – | 3 |
| N#Cc1ccc(Cn2cncc2CN(C(=O)c2ccccc2)c2ccc3[nH]c(C(=O)N4CCCCC4)c(-c4ccccc4)c3c2)cc1 [Example 164, N-[3-(4-Cyanobenzyl)-3H-imidazol-4-ylmethyl]-N-[3-phenyl-2-(piperidine-1-carbonyl)-1H-indol-5-yl]benzamide] | 20 | 8 |
| N#Cc1ccc(Cn2cncc2CN(C(=O)C2CCCCC2)c2ccc3[nH]c(C(=O)N4CCCCC4)c(-c4ccccc4)c3c2)cc1 [Example 167, Cyclohexanecarboxylic-[3-(4-cyanobenzyl)-3H-imidazol-4-ylmethyl]-[3-phenyl-2-(piperidine-1-carbonyl)-1H-indol-5-yl]amide acid] | 7 | 400 |

The remaining lines, values ahead:

| IC50 (GGPT I) [nM] | IC50 [1] [nM] | SMILES |
| --- | --- | --- |
| – | 2 | N#Cc1ccc(Cn2cncc2CN(C(=O)c2cccs2)c2ccc3sc(C(=O)N4CCSCC4)cc3c2)cc1 [Example 91, N-[3-(4-Cyanobenzyl)-3H-imidazol-4-ylmethyl]-N-[2-(thiomorpholine-4-carbonyl)benzo[b]thiophen-5-yl]thiophene-2-carboxamide] |
| – | 2 | CCCC(=O)N(Cc1cncn1Cc1ccc(C#N)cc1)c1ccc2sc(C(=O)N3CCSCC3)cc2c1 [Example 92, N-[3-(4-Cyanobenzyl)-3H-imidazol-4-ylmethyl]-N-[2-(thiomorpholine-4-carbonyl)benzo[b]thiophen-5-yl]butyramide] |
| – | 1 | N#Cc1ccc(Cn2cncc2CN(C(=O)c2cccc(F)c2)c2ccc3sc(C(=O)N4CCSCC4)cc3c2)cc1 [Example 97, N-[3-(4-Cyanobenzyl)-3H-imidazol-4-ylmethyl]-N-[2-(thiomorpholine-4-carbonyl)benzo[b]thiophen-5-yl]-3-fluorobenzamide] |
| – | 6 | N#Cc1ccc(Cn2cncc2CN(C(=O)Cc2ccccc2)c2ccc3sc(C(=O)N4CCSCC4)cc3c2)cc1 [Example 100, N-[3-(4-Cyanobenzyl)-3H-imidazol-4-ylmethyl]-N-[2-(thiomorpholine-4-carbonyl)benzo[b]thiophen-5-yl]-2-phenylacetamide] |
| – | 5 | N#Cc1ccc(Cn2cncc2CN(C(=O)C2CCCCC2)c2ccc3sc(C(=O)N4CCSCC4)cc3c2)cc1 [Example 101, N-[3-(4-Cyanobenzyl)-3H-imidazol-4-ylmethyl]-N-[2-(thiomorpholine-4-carbonyl)benzo[b]thiophen-5-yl]cyclohexanecarboxamide] |
| – | 8 | CCCCN(Cc1cncn1Cc1ccc(C#N)cc1)c1ccc2sc(C(=O)N3CCSCC3)cc2c1 [Example 113, 4-[5-({Butyl[2-(thiomorpholine-4-carbonyl)benzo[b]thiophen-5-yl]amino}methyl)imidazol-1-ylmethyl]benzonitrile] |
| 60 | 10 | N#Cc1ccc(Cn2cncc2CN(C(=O)c2ccccc2)c2ccc3[nH]c(C(=O)N4CCSCC4)c(-c4ccccc4)c3c2)cc1 [Example 165, N-[3-(4-Cyanobenzyl)-3H-imidazol-4-ylmethyl]-N-[3-phenyl-2-(thiomorpholine-4-carbonyl)-1H-indol-5-yl]benzamide] |
